Measured values published in patent US5180711A, “Combined treatment with GnRH antagonist and GnRH to control gonadotropin levels in mammals” (Applied Research Systems ARS Holding N.V., priority 1990, dated 1993).
Where a SMILES comes first, the peptide text is derived from it. [ ]: non-standard residue; d: D form. The star is where a group is joined. dPhe(4-Cl) = N[C@H](Cc1ccc(Cl)cc1)C(=O)O; d2Nal = N[C@H](Cc1ccc2ccccc2c1)C(=O)O; Lys(iPr) = CC(C)NCCCC[C@H](N)C(=O)O; d3Pal = N[C@H](Cc1cccnc1)C(=O)O; Nicotinoyl = O=C(c1cccnc1)*

Columns and labels:
[1] = system: ovulation; estradiol and progesterone concentrations; assay: Ovulation induction by pulsatile GnRH replacement during Antide suppression of endogenous cycles (Example 2); type: in vivo, cynomolgus monkeys
Description: A second experiment was performed to establish that pulsatile GnRH replacement therapy would induce ovulation in the face of antagonist-induced suppression of endogenous cycles.
(§1) Normally cycling cynomolgus monkeys were studied in one of two regimens. Regimen A comprised a series of initial large loading doses of Antide (10 mg/kg, sc), with no further Antide administration. […] In each regimen GnRH replacement was initiated 4 days after the first Antide injection at a rate of 5 μg/pulse, with one 1 min pulse/hour. The amplitude was subsequently raised to 10 μg/pulse after approximately 21 days. Daily blood samples were drawn for later determination of estradiol, progesterone and Antide concentrations.

[2] = system: tonic gonadotropin (FSH/LH) levels; details: ovariectomized monkeys treated with Antide; cited from earlier work
[3] = system: endogenous gonadotropin secretion (LH, FSH); assay: Inhibition of endogenous gonadotropin secretion by Antide and response to pulsatile GnRH replacement in ovariectomized monkeys (Example 1); type: in vivo, cynomolgus monkeys; details: Antide-suppressed monkeys; GnRH 5 μg/pulse, 1 pulse/hour, from day 17; day after initiation
Description: Three long-term ovariectomized cynomolgus monkeys fitted with indwelling jugular vein canulae were utilized for this study. Daily blood samples were drawn under ketamine-induced anesthesia (10 mg/kg, I.M.), for 90 days. On study days 11-16 Antide (3 mg/kg, in propylene/glycol:water, 1:1) was administered via subcutaneous injection. GnRH replacement therapy (5 μg/pulse, 1 pulse/hour given over 1 min, via a Pulsamat infusion pump) was initiated on day 17 and continued for one week then withheld for one week, then reinitiated for one week in a 7 day on, 7 day off regimen for a total of four exposures.

[4] = Antide concentrations in daily blood samples (Example 2); type: in vivo, cynomolgus monkeys; details: regimen A: four daily injections of 10 mg/kg sc; test period >40 days
Description: as §1

In the case of “gonadotropin releasing hormone (QHWSYGLRPG; Gonadoliberin-1; UniProt P01148 24-33, looked up) [GnRH]”, the “E2 response, ovulation and luteal P4” value ([1]; regimen A, GnRH restarted at 10 μg/pulse) is reported as “rapid and sustained elevation of E2 concentrations culminating in ovulation and normal luteal phase P4 (progesterone) concentrations”, the “E2 response to initial pulsatile GnRH replacement” value ([1]; regimen B, GnRH 5 μg/pulse) is reported as “elevations of E2 to those characteristic of the late follicular phase” and the “E2 response, ovulation and luteal P4” value ([1]; regimen B, GnRH increased to 10 μg/pulse) is reported as “rapid rise in E2 concentrations to normal preovulatory levels culminating in ovulation with subsequent normal luteal P4 production”. For the same compound, the “gonadotropin response to a large i.v. bolus of GnRH” value [2] was “transient increase in gonadotropin levels which subsequently fell back to the inhibited state” and the “gonadotropin concentrations during GnRH replacement therapy” value [3] was “greater than 100 ng/ml”.
In the case of `CC(=O)N[C@H](Cc1ccc2ccccc2c1)C(=O)N[C@H](Cc1ccc(Cl)cc1)C(=O)N[C@H](Cc1cccnc1)C(=O)N[C@@H](CO)C(=O)N[C@@H](CCCCNC(=O)c1cccnc1)C(=O)N[C@H](CCCCNC(=O)c1cccnc1)C(=O)N[C@@H](CC(C)C)C(=O)N[C@@H](CCCCNC(C)C)C(=O)N1CCC[C@H]1C(=O)N[C@H](C)C(N)=O` [Antide, N--Ac--D--2--Nal--D--pClPhe--D--3---Pal--Ser--NicLys--D--NicLys--Leu--ILys--Pro--D--Ala--NH2] (Ac-[d2Nal][dPhe(4-Cl)][d3Pal]SK(Nicotinoyl)[dK](Nicotinoyl)L[Lys(iPr)]P[dA]-NH2), the “concentration of Antide, always remaining above, throughout test period” value [4] is reported as “above 15 ng/ml”.
